According to US20230364079A1, “COMPOUND AS BRAIN-PERMEABLE BTK OR HER2 INHIBITOR, PREPARATION METHOD THEREFOR, AND USE THEREOF” (CHENGDU HYPERWAY PHARMACEUTICALS CO., LTD., priority 2020, published 2023):

Assays:
[1] = target: BTK wild-type kinase (Homo sapiens (Human), UniProt Q06187); test: BTK kinase activity inhibition test in vitro (Caliper EZ Reader); type: biochemical
How it was run: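 Compound (10 mM DMSO stock) preincubated with kinase 10 min at room temperature, then ATP plus kinase substrate 2 added, 10 min reaction at room temperature before stop. Substrate conversion read by Caliper mobility shift; inhibition normalised to no-enzyme and no-compound controls, IC50 by variable-slope log(inhibitor) fit.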

[2] = target: BTK mutation-type C481S kinase (Homo sapiens (Human), UniProt Q06187, C481S); test: BTK-C481S kinase activity inhibition test in vitro (Caliper EZ Reader); type: biochemical
Sequence of BTK mutation-type C481S kinase (Q06187 whole entry C481S): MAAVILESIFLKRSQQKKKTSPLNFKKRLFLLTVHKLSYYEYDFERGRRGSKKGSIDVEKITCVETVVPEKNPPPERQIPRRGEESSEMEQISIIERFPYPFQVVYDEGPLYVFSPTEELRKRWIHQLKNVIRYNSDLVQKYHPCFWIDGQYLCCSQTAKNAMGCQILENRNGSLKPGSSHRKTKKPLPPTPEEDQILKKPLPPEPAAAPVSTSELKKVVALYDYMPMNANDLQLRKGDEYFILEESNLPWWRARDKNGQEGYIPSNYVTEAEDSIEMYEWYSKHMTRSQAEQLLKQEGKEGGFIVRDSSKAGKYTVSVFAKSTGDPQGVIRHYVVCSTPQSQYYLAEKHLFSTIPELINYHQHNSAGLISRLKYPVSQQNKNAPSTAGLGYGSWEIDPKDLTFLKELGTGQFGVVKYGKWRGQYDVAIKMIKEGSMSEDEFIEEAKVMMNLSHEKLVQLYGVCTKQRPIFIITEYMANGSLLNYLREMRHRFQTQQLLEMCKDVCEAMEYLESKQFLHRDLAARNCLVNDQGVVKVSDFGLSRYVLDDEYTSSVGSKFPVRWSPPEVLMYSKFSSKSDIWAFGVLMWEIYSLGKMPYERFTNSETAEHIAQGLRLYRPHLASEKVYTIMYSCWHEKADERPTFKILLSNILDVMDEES
Experimental: In the tests on the activity of inhibiting BTK and HER2 kinase in vitro in the examples of the present disclosure, powder of the compound was dissolved in 100% DMSO to prepare a 10 mM stock solution and stored at-20° C. in the dark. […] In addition, the compounds were subjected to experiments such as liver microsome metabolic stability, rat PK, rat brain penetration rate, and drug efficacy model in the examples of the present disclosure.
Compound powders were dissolved in 100% DMSO to make 10 mM stock solutions, which were stored at -20° C. in the dark.
2: Kinase Reaction Process
(1) Preparation of 1 × Kinase buffer.
(5) After centrifugation at 1000 rpm for 30 seconds, the reaction plate was shaken to mix well and incubated at room temperature for 10 min.
(6) A 5/3-fold final concentration of a mixed solution of ATP and Kinase substrate 2 was prepared with 1 × Kinase buffer.
(7) 15 µL of the mixed solution of ATP and substrate with 5/3-fold final concentration was added to start the reaction.
(8) The 384-well plate was centrifuged at 1000 rpm for 30 seconds, shaken to mix well, and incubated at room temperature for 10 min.
(9) 30 µL of a stop solution was added to stop the kinase reaction, and after centrifugation at 1000 rpm for 30 seconds, the plate was shaken to mix well;
(10) The conversion rate was read with Caliper EZ Reader.
where Conversion%_sample indicates the conversion rate reading of the sample; Conversion%_min is the average reading of the negative control wells, representing the conversion rate reading of the wells without enzyme activity; Conversion%_max is the average reading of the ratio of the positive control wells, representing the conversion rate reading of the wells without compound inhibition.
Dose-Response Curve Fitting
With the log value of the concentration as the X-axis, and the percentage inhibition rate as the Y-axis, the dose-effect curve was fitted using the log(inhibitor) vs. response-Variable slope of the analysis software GraphPad Prism 5, so as to determine the IC50 value of each compound on the enzyme activity.
The calculation formula was: […]

[3] = Liver microsome metabolic stability test, human; type: in vitro ADME; details: for half-life: read-out: T½
Experimental: (§1) 1: To the sample wells of T0, T5, T10, T20, T30, T60 and NCF60, 10 µL of the test or reference working solution and 80 µL of microsome working solution (hepatic microsome with a protein concentration of 0.5 mg/mL) were added, and to Blank60 well, only the microsome working solution was added. Then samples of the Blank60, T5, T10, T20, T30 and T60 other than T0 and NCF60 were placed in a 37° C. water bath and pre-incubated for about 10 min.
(§2) 2: To the T0 sample well, 300 µL of stop solution (containing 200 ng/mL tolbutamide and 200 ng/mL labetalol in acetonitrile solution) was added first, followed by 10 µL of NADPH regeneration system working solution.
(§3) 3: After the pre-incubation of Blank60, T5, T10, T20, T30 and T60 incubation plates, 10 µL of NADPH regeneration system working solution was added to each sample well to start the reaction, and 10 µL of 100 mM potassium phosphate buffer was added to the NCF60 sample well.
(§4) 4: After incubation for an appropriate time (such as 5, 10, 20, 30 and 60 min), to each test sample well and control well of the Blank60, T5, T10, T20, T30, T60 and NCF60 plates, 300 µL of stop solution was added to terminate the reaction.
(§5) 5: All sample plates were shaken to mix well and centrifuged at 4000 rpm for 20 min, and 100 µL of the supernatant of the test sample or control sample was taken and diluted with 300 µL of pure water for LC-MS/MS analysis.
(§6) 6: Data analysis: T½ and CLint(mic) (µL/min/mg) values were calculated according to the first-order elimination kinetics. The first-order elimination kinetics equation was: […]

[4] = Liver microsome metabolic stability test, rat; type: in vitro ADME; details: for half-life: read-out: T½
Experimental: as §1, §2, §3, §4, §5, §6

[5] = Pharmacokinetic test, oral, SD rats; type: in vivo; details: oral 10 mg/kg, plasma; for AUC(0-inf) / Cmax / half-life: rat; for Cmax: read-out: Cmax; for half-life: read-out: T½ (converted)
Experimental: Each test compound was administered orally (10 mg/kg, 3 rats in each group) to SD rats for pharmacokinetic study. […] Animals were fasted overnight before oral administration, and fed again after 4 h of administration. […] At each collection time point, 3 whole blood samples were collected at a the collection volume of about 0.2-0.3 mL. […] The collected plasma was stored at -20° C. before analysis. 20 µL of plasma sample was added into a 1.6 mL 96-well deep-well plate, added with 200 µL of working internal standard solution (the same volume of vehicle was added to the blank instead of internal standard), vortexed for 1 min, and centrifuged at 5800 rpm for 10 min. 100 µL of the supernatant was added to a 96-well injection plate for LC-MS/MS analysis.

[6] = Blood-brain barrier permeability test, SD rats (plasma, cerebrospinal fluid, brain tissue); type: in vivo; details: oral single dose 10 mg/kg
Experimental: Test Example 6: Blood-brain Barrier Permeability Test
Each test compound was administered orally at a single dose of 10 mg/kg to SD rats for pharmacokinetic study. Each group included 9 rats. The test compound was dissolved in 5% DMSO+10% solutol+85% saline, vortexed for 1-2 min, and ultrasonicated for 5-10 min to prepare into a colorless, transparent and clear administration solution. Animals were fasted overnight before administration. 1 h, 2 h, and 4 h after administration, three SD rats were selected from each group to take about 0.2-0.3 mL of blood through their orbit. The blood sample was placed on ice once collected, and centrifuged to separate the plasma within 15 min (centrifugation conditions: 8000 rpm, 1 min, room temperature). The collected plasma was stored at -20° C. before analysis. Immediately after blood collection, the cerebrospinal fluid and brain tissue were collected. The cerebrospinal fluid was draw out by dural puncture with a micro-sampler syringe under direct vision. Namely, about 100 µl of cerebrospinal fluid was collected with a 100 µl micro sample syringe from the rat that was anesthetized by chloral hydrate, with the head-fixed, the back hair-cut off, a transverse incision (2 cm) made at the line connecting the roots of the two ears, and the muscle layer of the neck and skull base bluntly scraped to expose the foramen magnum. The cerebrospinal fluid was stored at -20° C. before analysis. The rat then was sacrificed immediately, with its head cut off. The dissected brain tissue, with the surface capillaries peeled off, was weighed, added with 3 times the amount of cold saline, homogenized by a homogenizer for 1 min, and stored at -20° C. before analysis. 20 µL of plasma sample and brain homogenate sample was respectively added into 200 µL of working internal standard solution (the same volume of vehicle was added to the blank instead of internal standard), vortexed for 1 min, and centrifuged at 13500 rpm for 10 min. 100 µL of the supernatant was taken and analyzed by LC-MS/MS. 20 µL of the cerebrospinal fluid was added into 60 µL of working internal standard solution (the same volume of vehicle, instead of internal standard, was added to the blank), vortexed for 1 min, and centrifuged at 13500 rpm for 10 min. 50 µL of the supernatant was taken and analyzed by LC-MS/MS.

[7] = liver microsomes, 0.5 mg/mL protein

Sequence of BTK wild-type kinase (Q06187 whole entry): as the sequence (Q06187 whole entry C481S) above, with S481C counted along it

Nc1nccn2c(C3CCC(CO)OC3)nc(-c3ccc(Oc4cccc(F)c4F)cc3)c12 (centres unmarked) [Compound 8]
IC50 [1]: < 5 nM
IC50 [2]: < 5 nM
%Remaining (60 min) [3]: 37.4%
half-life [3, 7]: 0.682 h
%Remaining (60 min) [4]: 13.6%
half-life [4, 7]: 0.347 h

Nc1nccn2c(C3CCC(CO)OC3)nc(-c3ccc(C(=O)c4ccccc4)cc3)c12 (centres unmarked) [Compound 26]
IC50 [1]: 5 to 20 nM
IC50 [2]: 5 to 20 nM
%Remaining (60 min) [3]: 39.1%
half-life [3, 7]: 0.742 h
%Remaining (60 min) [4]: 24.5%
half-life [4, 7]: 0.502 h

Nc1nccn2c(C3CCC(CO)OC3)nc(-c3ccc(Cc4ccccc4)cc3)c12 (centres unmarked) [Compound 106]
IC50 [1]: < 5 nM
IC50 [2]: < 5 nM
%Remaining (60 min) [3]: 66.3%
half-life [3, 7]: 1.76 h
%Remaining (60 min) [4]: 39.1%
half-life [4, 7]: 0.782 h
Cl [5]: 64.75 mL/min/kg
AUC(0-inf) [5]: 2580 ng·h/mL
Cmax [5]: 1220 ng/mL
half-life [5]: 1.87 h

Nc1nccn2c(C3CCC(CO)OC3)nc(-c3ccc(C(=O)Nc4cc(C(F)(F)F)ccn4)cc3)c12 (single isomer, unassigned) [Compound 109-P1]
IC50 [1]: < 5 nM
IC50 [2]: < 5 nM
%Remaining (60 min) [3]: 85.4%
microsomal CLint ([3]; liver microsomes): < 9.6 µL/min/mg
half-life [3, 7]: > 2.42 h
%Remaining (60 min) [4]: 72.7%
microsomal CLint ([4]; liver microsomes): 12.2 µL/min/mg
half-life [4, 7]: 1.9 h
Cl [5]: 1.62 mL/min/kg
AUC(0-inf) [5]: 104000 ng·h/mL
Cmax [5]: 16700 ng/mL
half-life [5]: 2.83 h

Nc1nccn2c(C3CC[C@@H](CO)OC3)nc(-c3ccc(C(=O)Nc4ccccn4)cc3F)c12 (some centres unmarked) [Compound 1-B]
IC50 [1]: 20 to 100 nM
IC50 [2]: 5 to 20 nM
CLint [3]: <9.6 µL/min/mg
T½ ([3]; 0.5 mg/mL protein): >2.42 h
%Remaining (60 min) [3]: 99.9%
CLint [4]: 18.2 µL/min/mg
T½ ([4]; 0.5 mg/mL protein): 1.27 h
%Remaining (60 min) [4]: 63.7%

COc1cccc(Oc2ccc(-c3nc(C4CCC(CO)OC4)n4ccnc(N)c34)cc2)c1F (centres unmarked) [Compound 5]
IC50 [1]: < 5 nM
IC50 [2]: < 5 nM
%Remaining (60 min) [3]: 31.7%
half-life [3, 7]: 0.595 h
%Remaining (60 min) [4]: 12.7%
half-life [4, 7]: 0.19 h
Cl [5]: 69.13 mL/min/kg
AUC(0-inf) [5]: 2520 ng·h/mL
Cmax [5]: 463 ng/mL
half-life [5]: 1.17 h

Nc1nccn2c(C34CCC(CO)(CC3)OC4)nc(-c3ccc(C(F)(F)c4cccc(F)c4Cl)cc3)c12 [Compound 146]
Brain tissue/plasma ([6]; 1 h): 78%
Cerebrospinal fluid/plasma ([6]; 1 h): 7.2%
Drug concentration in brain tissue ([6]; 1 h): 296 ng/g
Drug concentration in cerebrospinal fluid ([6]; 1 h): 27.4 ng/mL
Plasma drug concentration ([6]; 1 h): 380 ng/mL
Brain tissue/plasma ([6]; 4 h): 110%
Cerebrospinal fluid/plasma ([6]; 4 h): 9.2%
Drug concentration in brain tissue ([6]; 4 h): 410 ng/g
Drug concentration in cerebrospinal fluid ([6]; 4 h): 34.3 ng/mL
Plasma drug concentration ([6]; 4 h): 373 ng/mL

Nc1nccn2c(C34CCC(CO)(CC3)OC4)nc(-c3ccc(C(=O)Nc4ccccn4)cc3)c12 [Compound 34]
IC50 [1]: 5 to 20 nM
IC50 [2]: 5 to 20 nM
%Remaining (60 min) [3]: 112.0%
half-life [3, 7]: > 2.42 h
%Remaining (60 min) [4]: 90.3%
half-life [4, 7]: > 2.42 h
Cl [5]: 8.1 mL/min/kg
AUC(0-inf) [5]: 20600 ng·h/mL
Cmax [5]: 11100 ng/mL
half-life [5]: 1.7 h

N#Cc1ccnc(NC(=O)c2ccc(-c3nc(C4CCC(CO)OC4)n4ccnc(N)c34)cc2)c1 (centres unmarked) [Compound 103]
IC50 [1]: < 5 nM
IC50 [2]: < 5 nM
%Remaining (60 min) [3]: 100.3%
half-life [3, 7]: > 2.42 h
%Remaining (60 min) [4]: 85.7%
half-life [4, 7]: > 2.42 h
Cl [5]: 16.67 mL/min/kg
AUC(0-inf) [5]: 10400 ng·h/mL
Cmax [5]: 4730 ng/mL
half-life [5]: 1.73 h

Nc1nccn2c(C3CCC(CO)OC3)nc(-c3ccc(C(F)(F)c4ccccc4)cc3)c12 (centres unmarked) [Compound 111]
IC50 [1]: < 5 nM
IC50 [2]: < 5 nM
%Remaining (60 min) [3]: 73.5%
half-life [3, 7]: 2.12 h
%Remaining (60 min) [4]: 46%
half-life [4, 7]: 0.887 h
Cl [5]: 17.83 mL/min/kg
AUC(0-inf) [5]: 9630 ng·h/mL
Cmax [5]: 1780 ng/mL
half-life [5]: 3.15 h
